According to US10092537B2, “Use for PAI-1 inhibitor” (RENASCIENCE CO., LTD., priority 2013, dated 2018):

Legend:
[1] = tested on: hematopoietic stem cells; assay: Hematopoietic recovery after bone-marrow transplantation, compounds a, b, c (Experimental Example 5); type: in vivo, mice; conditions: for frequency of hematopoietic stem cells / self-renewal capacity of hematopoietic stem cells: compound a 100 mg/kg oral 4 days, compounds b and c 10 mg/kg oral 6 consecutive days after bone-marrow transplantation
Protocol: The procedures of Experimental Examples 4 (1) and 4 (4) were repeated using compounds b and c, instead of compound a, as a test compound.
Compound a was orally administered in an amount of 100 mg/kg for 4 consecutive days after bone-marrow transplantation. Compounds b and c were orally administered in an amount of 10 mg/kg for 6 consecutive days after bone-marrow transplantation.
Bone marrow was collected 1 and 3 weeks after bone-marrow transplantation. The total number of the whole bone-marrow cells (FIG. 9E), the proportion (%) of LSK-CD34 negative cells in the whole bone marrow (FIG. 9A), the total number of LSK-CD34 negative cells in the whole bone marrow (FIG. 9B), the proportion (%) of Lin-SLAM cells in the whole bone marrow (FIG. 9C), and the total number of Lin-SLAM cells in the whole bone marrow (FIG. 9D) were measured. The results are shown in the above-stated figures.

[2] = tested on: CML cells (32Dp210-GFP cells); assay: Chronic myelogenous leukemia model mice, imatinib and compound a (Experimental Example 11); type: in vivo, C3H/HeJ mice
Protocol: p210(BCR-ABL) gene was inserted into a MIGR1 vector, and GFP cDNA was further incorporated as a reporter gene downstream of the gene (hereinafter, the vector is referred to as “p210-GFP”). p210-GFP was infected with 32D cells (C3H/HeJ mice cell line), and chronic myelogenous leukemia (hereinafter, referred to as “CML”) cells were prepared. 2.5×10^5 of the thus-obtained CML cells (32Dp210(BCR-ABL)-GFP cells, hereinafter, referred to as “32Dp210-GFP cells”) were intravenously administered into the retro-orbital plexus of C3H/HeJ mice. 7 to 10 days after the transplantation, the abundance ratio of GFP cells in the peripheral blood was analyzed, and mice with more than 3% of abundance ratio were used as chronic myelogenous leukemia model mice in the following experiments.
15 chronic myelogenous leukemia model mice prepared by using the procedure described above were divided into the following 3 groups (each group: n=15), and a test drug was administered to the mice in accordance with the protocol shown in FIG. 15A.
(§1) Group 1: placebo group (physiological saline was administered via gavage)
(§2) Group 2: imatinib group (imatinib [150 mg/kg/day] was administered via gavage)
Group 3: imatinib+compound a group (imatinib [150 mg/kg/day] and compound a [100 mg/kg/day] were administered via gavage)
10 days (day 10) after the day on which CML cells were intravenously inoculated (day 0), administration of test drugs to the groups was started. The placebo group and the imatinib group were administered the respective test drugs once a day from day 10 to day 16 (7 doses in total). The imatinib+compound a group was administered imatinib once a day from day 10 to day 16 (7 doses in total), and also administered compound a once a day from day 10 to day 14 (5 doses in total).
As described above, 32Dp210-GFP includes GFP as a reporter gene, and thus, the CML cells having 32Dp210-GFP inserted (32Dp210-GFP cells) are GFP-positive. Therefore, using FACS (FACS (BD Biosciences: FACSCalibur), the frequency of CML cells (32Dp210-GFP cells) in mononucleic cells of the bone marrow and spleen was measured and compared between the imatinib group and the imatinib+compound a group.

[3] = tested on: hematopoietic stem cells; assay: Bone-marrow transplantation into wild-type mice and tPA-KO-mice (Experimental Example 8 (2)); type: in vivo; conditions: 3 weeks after bone-marrow transplantation
Protocol: Compound a was administered to wild-type mice and tPA-KO-mice (6 mice for each) that underwent bone-marrow transplantation, and 3 weeks after, the mice were measured for the number of bone-marrow mononucleic cells (BM MNC), the frequency and absolute number of Lin-SLAM cells, and the frequency and absolute number of LSK-CD34 negative cells. Physiological saline was administered to a control group, and the same measurement was conducted.

[4] = tested on: hematopoietic stem cells; assay: Frequency and absolute number of hematopoietic stem cells after bone-marrow transplantation (Experimental Example 8 (1)); type: in vivo, mice; conditions: 1 and 3 weeks after bone-marrow transplantation
Protocol: In accordance with the procedure of Experimental Example 7 (1), bone marrow was transplanted, and tPA or compound a was administered in the same manner as in Experimental Example 7. Physiological saline was administered to a control group. 1 and 3 weeks after bone-marrow transplantation, 12 mice of each group were measured for the number of bone-marrow mononucleic cells (BM MNC), the frequency and absolute number of Lin-SLAM cells, and the frequency and absolute number of LSK-CD34 negative cells.

[5] = tested on: HER2-positive human ovarian cancer cell lines SKOV3; assay: SKOV3 ovarian cancer subcutaneous tumor, Herceptin and compound c (Experimental Example 18); type: in vivo, BALB/c-nude mice; conditions: Herceptin 5 mg/kg i.p. once + compound c 10 mg/kg/day oral (day 0-4, day 7-11); 45 days after administration
Protocol: HER2-positive human ovarian cancer cell lines SKOV3 (5×10^6) were subcutaneously inoculated into BALB/c-nude mice. For better cell engraftment, the mice were intraperitoneally administered 25 μl of anti-Asialo GM1 antibody (Wako Pure Chemical Industries, Ltd., Code No. 014-09801) 2 days and 1 day before the cancer cell inoculation. […] The group to which Herceptin and compound c were administered in combination is referred to as “compound c-combined group”, and the group to which Herceptin and physiological saline were administered in combination is referred to as “compound c-non-combined group.” The group to which only physiological saline was administered without Herceptin is referred to as “placebo group.”

[6] = tested on: CML cells (32Dp210-GFP cells); assay: Chronic myelogenous leukemia model mice, imatinib and compound c (Experimental Example 12); type: in vivo
Protocol: Chronic myelogenous leukemia model mice prepared in the same manner as in Experimental Example 11 were divided into the following 3 groups (each group: n=10), and the groups were administered respective test drugs in accordance with the protocol shown in FIG. 15A.
as §1, §2
Group 3: imatinib+compound c group (imatinib [150 mg/kg/day] and compound c [10 mg/kg/day] were administered via gavage)
8 days (day 8) after the day on which CML cells (32Dp210-GFP cells) were intravenously inoculated (day 0), administration of the test drugs to the groups was started. The placebo group and the imatinib group were administered the respective test drugs once a day from day 8 to day 14 (7 doses in total). The imatinib+compound c group was administered imatinib once a day from day 8 to day 14 (7 doses in total), and also administered compound c once a day from day 8 to day 14 (7 doses in total).

[7] = compound a 100 mg/kg oral, 4 consecutive days, 1 and 3 weeks after bone-marrow transplantation, versus vehicle
[8] = imatinib 150 mg/kg/day + compound a 100 mg/kg/day

In the case of `O=C(COCC(=O)N1CCN(C(c2ccccc2)c2ccccc2)CC1)Nc1ccc(Cl)cc1C(=O)[O-].[Na+]` [Example 30 (compound group 2), 2-(2-(2-(4-benzhydrylpiperazin-1-yl)-2-oxoethoxy)acetamido)-5-chlorobenzoic acid sodium salt], the “frequency of hematopoietic stem cells” value [1] is reported as “increase”, the “self-renewal capacity of hematopoietic stem cells” value [1] is reported as “enhance” and the “plg level, tPA level, cKitL level, total MMP-9 level in the plasma and white blood cell count in the peripheral blood” value [1, 7] is reported as “significantly higher”. The “proportion and total number of LSK-CD34 negative cells and Lin-SLAM cells in the whole bone marrow” value [1, 7] was “significantly higher”, the “survival rate on day 50” value ([2]; imatinib 150 mg/kg/day (day 10-16) + compound a 100 mg/kg/day (day 10-14) via gavage) was 60% and the “frequency of 32Dp210-GFP cells in bone-marrow mononucleic cells” value [2, 8] was “about 1.7%”. For the same compound, the “frequency of CML cells (32Dp210-GFP cells) in the spleen” value [2, 8] was “about 6.6%”, the median survival period ([2]; imatinib 150 mg/kg/day + compound a 100 mg/kg/day via gavage, placebo 14 days) was 40 days and the bone-marrow mononucleic cells ([3]; tPA-KO-mice) was “did not exhibit an increase”. For the same compound, the “frequency or absolute number of Lin-SLAM cells and of LSK-CD34 negative cells” value ([3]; tPA-KO-mice) was “an increase was also not observed”, the bone-marrow mononucleic cells ([3]; wild-type mice) was “increase” and the “LSK-CD34 negative cells (frequency and absolute number)” value [4] was “markedly increased”. For the same compound, the “frequency and absolute number of Lin-SLAM cells” value [4] was “markedly increased” and the “number of bone-marrow mononucleic cells” value ([4]; compared with control group) was “significantly increased”.
With `O=C(Nc1ccc(Cl)cc1C(=O)O)c1cccc(-c2ccccc2)c1` [Example 4, 2-[(biphenyl-3-ylcarbonyl)amino]-5-chlorobenzoic acid] the “tumor volume versus other groups” value [5] was “significantly smaller”, the “survival rate on day 40” value ([6]; imatinib 150 mg/kg/day + compound c 10 mg/kg/day via gavage, day 8 to day 14) was 70% and the median survival period ([6]; imatinib 150 mg/kg/day + compound c 10 mg/kg/day, placebo 15.5 days) was 40 days. For the same compound, the “frequency of hematopoietic stem cells” value [1] was “increase” and the “self-renewal capacity of hematopoietic stem cells” value [1] was “enhance”.
